In US4447626A, “ML-236B Derivatives” (Sankyo Company Limited, priority 1981, dated 1984):

System: cholesterol biosynthesis
Assay: Inhibition of cholesterol biosynthesis (method of J. Biol. Chem. 234, 2835 (1959))
Type: biochemical
Settings: method of Journal of Biological Chemistry, 234, 2835 (1959)
Excerpt: The inhibitory activities of certain of the compounds of the invention, in terms of the concentration in μg/ml required to inhibit cholesterol biosynthesis by 50% [measured by the method described in the Journal of Biological Chemistry, 234, 2835 (1959)], are as follows: […]

In order of falling “concentration required to inhibit cholesterol biosynthesis by 50%” value:
1. CC[C@H](C)C(=O)O[C@H]1CC=CC2=CC(OC)[C@H](C)[C@H](CC[C@@H]3C[C@@H](O)CC(=O)O3)[C@H]21 (stereo partly drawn) [6-methoxy-IsoML-236B lactone]  0.015 µg/mL
2. CC[C@H](C)C(=O)O[C@H]1CCC=C2C=C[C@H](C)[C@H](CC[C@@H]3C[C@@H](O)CC(=O)O3)[C@H]21 [ML-236B lactone, reference compound]  0.010 µg/mL
3. CC[C@H](C)C(=O)O[C@H]1CC=CC2=CC(OC)[C@H](C)[C@H](CC[C@@H](O)C[C@@H](O)CC(=O)O)[C@H]21 (stereo partly drawn) [Sodium 6-methoxy-IsoML-236B carboxylate, sodium 6-methoxy-IsoML-236B carboxylate]  0.0044 µg/mL
